Assay results taken from patent publication US9573911B2, “Diphosphate mimetics and uses thereof” (President and Fellows of Harvard College, priority 2011, dated 2017).

Experiments:
Experiment in all cases: Kinase profiling, Invitrogen Z'-LYTE
Assay type in all cases: biochemical
Conditions in all cases: Table 2
FER = molecular target: T1, FER (Homo sapiens, UniProt P16591)
T1 construct: purchased Invitrogen
Description: (§1) Kinase profiling was conducted using Invitrogen Z'-LYTE screening protocol and assay conditions found at www.invitrogen.com. Compound (2) inhibited PLK1 completely at 5 μM.

SRPK2 = molecular target: T2, SRPK2 (Homo sapiens, UniProt P78362)
T2 construct: purchased Invitrogen
T2 sequence (P78362 whole entry): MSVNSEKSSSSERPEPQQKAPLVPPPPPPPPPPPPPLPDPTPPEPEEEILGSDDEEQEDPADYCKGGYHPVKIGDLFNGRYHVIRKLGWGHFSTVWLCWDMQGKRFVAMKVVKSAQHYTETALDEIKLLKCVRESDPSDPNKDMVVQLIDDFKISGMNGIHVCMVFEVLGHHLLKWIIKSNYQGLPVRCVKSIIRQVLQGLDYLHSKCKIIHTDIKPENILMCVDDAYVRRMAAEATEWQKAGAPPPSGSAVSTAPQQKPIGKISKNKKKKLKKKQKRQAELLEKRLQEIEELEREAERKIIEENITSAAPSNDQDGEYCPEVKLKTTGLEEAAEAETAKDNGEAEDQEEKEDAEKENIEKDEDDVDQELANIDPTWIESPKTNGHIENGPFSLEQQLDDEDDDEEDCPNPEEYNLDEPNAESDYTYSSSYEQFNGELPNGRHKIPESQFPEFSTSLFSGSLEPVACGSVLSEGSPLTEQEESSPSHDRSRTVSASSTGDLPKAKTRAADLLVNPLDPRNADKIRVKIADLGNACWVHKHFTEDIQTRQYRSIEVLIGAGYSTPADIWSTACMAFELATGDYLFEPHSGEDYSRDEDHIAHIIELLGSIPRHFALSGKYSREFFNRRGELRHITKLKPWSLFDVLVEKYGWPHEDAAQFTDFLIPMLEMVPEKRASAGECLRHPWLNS
Description: as §1

FLT3 D835Y = molecular target: T3, FLT3 D835Y (Homo sapiens, UniProt P36888, D835Y)
T3 construct: purchased Invitrogen
T3 sequence (P36888 27-993 D835Y): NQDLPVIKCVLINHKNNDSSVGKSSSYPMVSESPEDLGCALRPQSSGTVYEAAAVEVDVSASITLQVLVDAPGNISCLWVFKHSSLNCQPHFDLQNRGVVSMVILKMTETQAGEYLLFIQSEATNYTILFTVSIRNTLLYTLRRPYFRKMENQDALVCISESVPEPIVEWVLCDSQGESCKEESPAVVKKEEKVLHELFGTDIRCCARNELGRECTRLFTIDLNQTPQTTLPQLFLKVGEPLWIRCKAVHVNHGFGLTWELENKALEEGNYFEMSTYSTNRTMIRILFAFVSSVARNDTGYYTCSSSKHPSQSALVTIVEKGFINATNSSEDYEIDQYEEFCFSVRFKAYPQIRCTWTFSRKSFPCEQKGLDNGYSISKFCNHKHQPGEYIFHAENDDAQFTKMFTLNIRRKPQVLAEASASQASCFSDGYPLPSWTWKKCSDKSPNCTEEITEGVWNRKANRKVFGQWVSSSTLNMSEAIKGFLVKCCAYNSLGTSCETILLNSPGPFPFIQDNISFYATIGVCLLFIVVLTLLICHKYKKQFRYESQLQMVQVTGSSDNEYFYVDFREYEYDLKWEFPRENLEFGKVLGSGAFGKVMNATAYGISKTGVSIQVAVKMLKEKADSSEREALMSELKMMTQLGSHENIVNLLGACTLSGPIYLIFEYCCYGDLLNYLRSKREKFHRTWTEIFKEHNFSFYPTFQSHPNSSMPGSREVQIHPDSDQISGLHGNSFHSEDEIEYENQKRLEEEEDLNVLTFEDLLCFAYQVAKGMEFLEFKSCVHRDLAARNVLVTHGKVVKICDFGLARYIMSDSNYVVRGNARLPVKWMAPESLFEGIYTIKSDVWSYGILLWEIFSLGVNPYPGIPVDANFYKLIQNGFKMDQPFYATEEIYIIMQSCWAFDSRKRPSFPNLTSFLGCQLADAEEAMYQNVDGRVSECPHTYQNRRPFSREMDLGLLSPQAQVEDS
Description: as §1

CSK = molecular target: T4, CSK (Homo sapiens, UniProt P41240)
T4 construct: purchased Invitrogen
T4 sequence (P41240 whole entry): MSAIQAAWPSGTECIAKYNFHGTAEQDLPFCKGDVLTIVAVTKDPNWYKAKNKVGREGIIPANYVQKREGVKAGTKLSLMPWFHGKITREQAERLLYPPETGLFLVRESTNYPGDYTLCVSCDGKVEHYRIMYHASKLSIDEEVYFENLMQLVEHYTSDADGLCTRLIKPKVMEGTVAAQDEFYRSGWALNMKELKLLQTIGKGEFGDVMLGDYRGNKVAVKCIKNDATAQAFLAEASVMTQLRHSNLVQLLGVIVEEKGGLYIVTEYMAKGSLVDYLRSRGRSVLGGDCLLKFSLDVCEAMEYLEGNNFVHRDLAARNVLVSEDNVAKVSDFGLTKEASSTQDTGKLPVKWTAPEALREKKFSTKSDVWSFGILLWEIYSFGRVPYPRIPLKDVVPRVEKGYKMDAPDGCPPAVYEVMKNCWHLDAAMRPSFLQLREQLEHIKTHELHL
Description: as §1

CDK5/p25 = molecular target: T5, CDK5/p25 (Homo sapiens, UniProt Q00535)
T5 construct: purchased Invitrogen
T5 sequence (Q00535 whole entry): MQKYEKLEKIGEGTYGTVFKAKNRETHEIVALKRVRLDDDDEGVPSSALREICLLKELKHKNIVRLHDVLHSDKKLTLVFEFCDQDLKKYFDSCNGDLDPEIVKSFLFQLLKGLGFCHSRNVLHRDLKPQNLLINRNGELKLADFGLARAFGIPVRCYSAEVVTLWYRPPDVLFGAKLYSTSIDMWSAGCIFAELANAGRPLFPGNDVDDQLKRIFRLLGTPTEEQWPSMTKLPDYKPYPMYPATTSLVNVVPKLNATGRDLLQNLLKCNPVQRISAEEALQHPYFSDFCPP
T5 sequence (Q15078 99-307 partner limits assumed): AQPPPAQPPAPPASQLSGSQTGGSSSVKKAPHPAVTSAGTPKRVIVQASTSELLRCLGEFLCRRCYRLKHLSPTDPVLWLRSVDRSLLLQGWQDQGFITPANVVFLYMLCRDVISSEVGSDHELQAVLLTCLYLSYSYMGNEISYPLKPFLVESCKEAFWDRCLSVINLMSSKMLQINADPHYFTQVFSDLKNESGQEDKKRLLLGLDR
Description: as §1

MET M1250T = molecular target: T6, MET M1250T (Homo sapiens, UniProt P08581, M1250T)
T6 construct: purchased Invitrogen
T6 sequence (P08581 25-1390 M1250T): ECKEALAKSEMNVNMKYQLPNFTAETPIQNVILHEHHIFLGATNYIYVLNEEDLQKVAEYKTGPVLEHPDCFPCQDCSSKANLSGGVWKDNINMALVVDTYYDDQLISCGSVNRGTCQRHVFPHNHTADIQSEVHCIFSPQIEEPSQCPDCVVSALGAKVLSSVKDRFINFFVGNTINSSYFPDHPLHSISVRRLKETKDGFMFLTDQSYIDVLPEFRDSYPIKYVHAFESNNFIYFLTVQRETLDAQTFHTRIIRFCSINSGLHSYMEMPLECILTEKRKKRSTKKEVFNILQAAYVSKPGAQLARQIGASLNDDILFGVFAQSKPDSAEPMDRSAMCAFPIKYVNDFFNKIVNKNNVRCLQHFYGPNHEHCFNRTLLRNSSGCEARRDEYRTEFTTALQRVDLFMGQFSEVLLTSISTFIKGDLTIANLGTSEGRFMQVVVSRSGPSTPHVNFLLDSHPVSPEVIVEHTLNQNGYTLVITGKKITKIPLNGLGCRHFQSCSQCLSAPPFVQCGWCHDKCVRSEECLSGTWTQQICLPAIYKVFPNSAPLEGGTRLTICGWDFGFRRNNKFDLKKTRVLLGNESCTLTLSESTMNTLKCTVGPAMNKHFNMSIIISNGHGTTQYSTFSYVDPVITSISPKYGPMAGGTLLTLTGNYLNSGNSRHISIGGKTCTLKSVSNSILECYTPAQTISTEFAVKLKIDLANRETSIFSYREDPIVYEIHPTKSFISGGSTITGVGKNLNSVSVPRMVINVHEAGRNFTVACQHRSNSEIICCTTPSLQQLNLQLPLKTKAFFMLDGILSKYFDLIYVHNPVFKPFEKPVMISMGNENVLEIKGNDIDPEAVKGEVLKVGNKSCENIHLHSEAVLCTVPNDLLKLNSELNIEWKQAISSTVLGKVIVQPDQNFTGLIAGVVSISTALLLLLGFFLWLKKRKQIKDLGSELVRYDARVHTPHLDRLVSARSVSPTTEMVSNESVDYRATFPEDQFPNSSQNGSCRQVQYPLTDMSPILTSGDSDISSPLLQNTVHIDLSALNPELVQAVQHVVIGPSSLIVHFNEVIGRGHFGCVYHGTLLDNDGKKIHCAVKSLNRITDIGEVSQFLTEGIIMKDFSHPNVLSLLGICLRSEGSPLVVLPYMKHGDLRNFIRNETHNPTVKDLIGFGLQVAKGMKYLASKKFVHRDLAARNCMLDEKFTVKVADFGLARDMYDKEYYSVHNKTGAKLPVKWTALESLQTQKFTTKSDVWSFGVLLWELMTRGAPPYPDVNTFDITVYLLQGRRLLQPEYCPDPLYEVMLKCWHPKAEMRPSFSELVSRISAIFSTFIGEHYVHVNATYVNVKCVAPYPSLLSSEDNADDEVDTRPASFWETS
Description: as §1

EEF2K = molecular target: T7, EEF2K (Homo sapiens, UniProt O00418)
T7 construct: purchased Invitrogen
Description: as §1

PRKX = molecular target: T8, PRKX (Homo sapiens, UniProt P51817)
T8 construct: purchased Invitrogen
T8 sequence (P51817 1-358): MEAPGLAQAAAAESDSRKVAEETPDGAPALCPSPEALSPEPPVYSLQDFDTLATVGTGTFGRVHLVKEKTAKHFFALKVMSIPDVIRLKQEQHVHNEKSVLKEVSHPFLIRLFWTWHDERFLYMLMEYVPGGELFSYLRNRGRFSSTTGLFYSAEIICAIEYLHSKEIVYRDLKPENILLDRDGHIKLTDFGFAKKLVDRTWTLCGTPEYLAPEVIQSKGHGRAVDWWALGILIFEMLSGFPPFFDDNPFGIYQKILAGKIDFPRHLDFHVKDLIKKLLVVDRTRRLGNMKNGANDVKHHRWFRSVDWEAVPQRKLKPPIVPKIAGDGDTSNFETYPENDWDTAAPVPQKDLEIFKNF
Description: as §1

T1 sequence (P16591 whole entry): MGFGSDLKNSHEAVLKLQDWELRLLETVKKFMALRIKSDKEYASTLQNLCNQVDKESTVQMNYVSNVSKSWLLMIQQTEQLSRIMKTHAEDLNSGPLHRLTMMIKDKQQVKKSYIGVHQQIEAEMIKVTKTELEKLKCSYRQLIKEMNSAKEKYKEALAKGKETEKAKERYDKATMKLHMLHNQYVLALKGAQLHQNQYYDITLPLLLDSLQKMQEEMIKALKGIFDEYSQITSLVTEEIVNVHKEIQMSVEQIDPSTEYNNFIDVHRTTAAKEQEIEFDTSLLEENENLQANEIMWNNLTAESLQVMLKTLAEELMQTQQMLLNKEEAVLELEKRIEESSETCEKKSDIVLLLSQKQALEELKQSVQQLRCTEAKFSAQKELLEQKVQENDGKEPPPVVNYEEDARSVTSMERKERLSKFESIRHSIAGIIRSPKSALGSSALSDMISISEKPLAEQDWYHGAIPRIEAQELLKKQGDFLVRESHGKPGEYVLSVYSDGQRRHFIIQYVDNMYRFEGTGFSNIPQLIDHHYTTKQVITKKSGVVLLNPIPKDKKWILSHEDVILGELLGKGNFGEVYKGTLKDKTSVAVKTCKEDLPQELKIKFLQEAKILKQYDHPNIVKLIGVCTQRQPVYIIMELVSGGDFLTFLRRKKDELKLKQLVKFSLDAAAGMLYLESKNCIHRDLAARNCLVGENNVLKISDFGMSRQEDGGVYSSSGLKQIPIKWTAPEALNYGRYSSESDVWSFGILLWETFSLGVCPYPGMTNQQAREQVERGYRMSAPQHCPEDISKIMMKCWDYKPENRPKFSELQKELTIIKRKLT

For `COc1ccc(OC(=O)n2c(=O)oc3cc(C(C)=O)ccc32)cc1` [Compound 2], the “% Inhibition Point 1” value (FER) was −261%, the “% Inhibition Point 2” value (FER) was −240% and the “% Inhibition mean” value (FER) was −251%. For the same molecule, the “% Inhibition Point 1” value (SRPK2) was −155%, the “% Inhibition Point 2” value (SRPK2) was −160% and the “% Inhibition mean” value (SRPK2) was −158%. The “% Inhibition Point 1” value (FLT3 D835Y) was −41%, the “% Inhibition Point 2” value (FLT3 D835Y) was −43% and the “% Inhibition mean” value (FLT3 D835Y) was −42%. For the same molecule, the “% Inhibition Point 1” value (CSK) was −42%, the “% Inhibition Point 2” value (CSK) was −60% and the “% Inhibition mean” value (CSK) was −51%. The “% Inhibition Point 1” value (CDK5/p25) was −322%, the “% Inhibition Point 2” value (CDK5/p25) was −286% and the “% Inhibition mean” value (CDK5/p25) was −304%. The “% Inhibition Point 1” value (MET M1250T) was −113%, the “% Inhibition Point 2” value (MET M1250T) was −143% and the “% Inhibition mean” value (MET M1250T) was −128%. For the same molecule, the “% Inhibition Point 1” value (EEF2K) was −64%, the “% Inhibition Point 2” value (EEF2K) was −61% and the “% Inhibition mean” value (EEF2K) was −63%. The “% Inhibition Point 1” value (PRKX) was −135%, the “% Inhibition Point 2” value (PRKX) was −134% and the “% Inhibition mean” value (PRKX) was −135%.
